How the values were obtained:
[1] = Absorption maxima and absorption coefficients of photosensitizers; format: physicochemical
Description: The photosensitizers were used as received with the exception of N-HPT which was recrystallized twice from aqueous ethanol before use.

rabbit corneas = experiment: In vivo PTB of 6-mm penetrating keratoplasty incisions anchored by sutures, bursting pressure; conditions: 1% Rose Bengal, 191 J/cm2, 6-mm PK incision with 4-16 sutures
Procedure: PTB was performed in vivo in New Zealand rabbits to repair two types of corneal wounds.
In Group II, 6-mm Penetrating Keratoplasy (PK) incisions anchored by 4-16 sutures were performed in 16 rabbit corneas. Half of the corneas in each group underwent PTB where 1% Rose Bengal dye was applied to the wound edges followed by laser irradiation at fluence of 191 J/cm2. Photoactivation was performed with a 514 nm Argon Laser and a 532-nm CW Nd: YAG laser. Wound leak and incisional bursting pressure were determined in vivo in the immediate postoperative period.

[2] = tested on: epidermal cells of skin grafts; experiment: Trypan blue exclusion assay of epidermal cells from skin grafts after PTB; format: cell-based, mini pigs; conditions: 0.1% RB
Procedure: The cell viability in the skin grafts was further assessed quantitatively by trypan blue exclusion assay. The upper grafts were chosen to be examined because they absorbed more light, and therefore would be damaged to a greater extent, if any, than the lower ones. Following irradiation, the upper skin grafts were incubated with 1 mg/ml dispase (Life Technologies, Rockville, Md.) in PBS overnight at 4° C. The epidermis was gently peeled off from the dermis and washed twice in PBS. Epidermal cells were released by incubating the epidermis with 0.25% trypsin-EDTA (Cellgro) at 37° C. for 15 minutes, accompanied by gentle agitation. Fetal calf serum (FCS) was added to inhibit trypsin activity and the cell suspension was then centrifuged at 2500 rpm for 10 mins. The cell pellet was washed once and re-suspended in PBS. The trypan blue exclusion assay was performed after mixing equal volumes of cell suspension and 0.2% (w/v) trypan blue and loading onto a hemocytometer. The number of viable cells released from each skin graft was calculated. After preparing a single cell suspension from intact epidermis, the cell viability was assessed (FIG. 11).

[3] = tested on: collagen gel implant on rat latissimus dorsi muscle flap; experiment: Adherence of collagen-based esophagus implant to host muscle flap after PTB, ex vivo; conditions: for adherence of collagen implant on muscle flap: 0.1% RB, 514 nm
Procedure: An ex vivo experimental system was developed to investigate the effect of PTB on the bonding of an engineered, collagen-based, esophagus implant to host muscle flap tissue without the need for silicon tubing.
FIG. 14 provides an overview of the experimental methods. Esophageal keratinocytes were seeded on uncontracted collagen gel (ICN Biomedicals) for about one week until confluence was reached. A 1×1 cm piece of seeded collagen gel was removed (implant) from the culture dish and a suture loop was laced through at its edge. An equivalently-sized section of rat latissimus dorsi muscle flap was secured onto a flat plastic surface with sutures. Rose bengal (RB) at 0.1% (w/v), a photosensitizer having an absorption maximum and absorption coefficient of 550 nm and 33,000 dm^3/mo/cm at 514 nm, respectively, was applied to the collagen side of the implant and the surface of the muscle flap and incubated for about two minutes. The esophagus implant and the muscle flap were approximated with the dye-treated surfaces facing each other by gently pressing over the esophagus implants without damaging the keratinocyte layer. Excess dye was removed by aspiration and blotting. […]
Following irradiation, the adherence of the collagen-based esophageal implant to the host muscle flap was tested for the 50 J/cm^2 sample, 100 J/cm^2 sample, and the three controls, using a tensiometer (Chartillon) coupled to a force transducer (DFA2, Ametek). The adherence (N/cm^2; N=force applied, cm^2=area of collagen implant) of the collagen implant on the muscle flap was determined from the force-deflection curve, generated by plotting the amount of peeling force applied to the collagen implant to the force plate displacement level of the force transducer. It was observe that the mean adherence measurements determined for the negative, RB, and laser controls were 0.05, 0.06, and 0.07 N/cm^2, respectively (FIG. 15). In contrast, the adherence measurements determined for the 50 and 100 J/cm^2 composite samples were 0.15 and 0.13 N/cm^2, respectively (FIG. 15).

esophageal keratinocytes = experiment: NADH-diaphorase viability of esophageal keratinocytes after PTB; format: cell-based
Procedure: The viability of the photoactivated cells was also assessed. Nicotinamide adenine dinucleotide (NADH-diaphorase) staining was carried out based on the methods described by Heisterkamp J et al. (1999) Lasers Sug Med 25(3): 257-62 and Neumann R A et al. (1991) J Am Acad Dermatol 25: 991-8. Following irradiation, the keratinocyte layer was gently peeled away from the collagen gel and was exposed overnight to an incubation solution consisting of nicotinamide adenine dinucleotide (NADH) and nitroblue tetrazolium chloride (NBT) (Sigma). The viability of the cells was indicated by the formation of a water-insoluble blue precipitate (diformazan), which corresponded to areas with NADH-diaphorase activity. The insoluble blue precipitate was dissolved in DMSO (an organic solvent) and quantified by measuring the optical density (OD) at 550 nm against a commercially available standard. The negative control, RB control, and the laser control composites were also tested using identical conditions. It was determined for the negative control, RB control, laser control, 50 J/cm^2 composite sample, and the 100 J/cm^2 composite sample that the levels of corresponding blue precipitate were 143, 151, 158, 173 and 158 diformazan/nM after photochemical tissue bonding treatment (FIG. 16).

O=C([O-])c1c(Cl)c(Cl)c(Cl)c(Cl)c1-c1c2cc(I)c(=O)c(I)c-2oc2c(I)c([O-])c(I)cc12.[Na+].[Na+] [Rose Bengal]
absorption maximum [1]: 550 nm | absorption coefficient at the laser wavelength used ([1]; RB at 514 nm, Fl at 488 nm, MB at 661 nm, R-5-P at 488 nm, N-HPT at 351 nm): 33000 dm^3 mol^−1 cm^−1 | immediate bursting pressure (rabbit corneas): 410±70 mm Hg | number of viable cells per skin graft vs control ([2]; 0.56 W/cm^2, 126, 252 and 504 J/cm^2): not significantly different | number of viable cells relative to control group ([2]; 504 J/cm^2): ~80% | adherence of collagen implant on muscle flap ([3]; 0.25 W/cm^2, 50 J/cm^2): 0.15 N/cm^2 | adherence of collagen implant on muscle flap ([3]; 0.25 W/cm^2, 100 J/cm^2): 0.13 N/cm^2 | mean adherence of collagen implant on muscle flap ([3]; RB control: 0.1% RB treated, nonirradiated): 0.06 N/cm^2 | level of blue precipitate (NADH-diaphorase viability) (esophageal keratinocytes; 0.1% RB, 50 J/cm^2): 173 diformazan/nM | level of blue precipitate (NADH-diaphorase viability) (esophageal keratinocytes; 0.1% RB, 100 J/cm^2): 158 diformazan/nM | level of blue precipitate (NADH-diaphorase viability) (esophageal keratinocytes; RB control: RB treated, nonirradiated): 151 diformazan/nM

Source: patent US8215314B2, “Photochemical tissue bonding” (The General Hospital Corporation, priority 2000, dated 2012)
